The values that follow come from patent publication US20100331305A1, “OXO-HETEROCYCLE FUSED PYRIMIDINE COMPOUNDS, COMPOSITIONS AND METHODS OF USE” (Genentech, Inc., priority 2009, published 2010).

Assay [1] addresses mTOR enzyme (mTOR(1360-2549)+GBL) (Homo sapiens, UniProt P42345). The assay can be described thus: In vitro mTOR kinase assay (TR-FRET). Type of assay: biochemical. As to conditions: 0.25 nM mTOR+GBL, 8 uM ATP; values tied to compounds by order of Table 1; 'x or y' = two alternative values for separated diastereomers of unassigned stereochemistry; read-out: activity level (Ki) in the mTOR kinase assay. Summed up: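 Compounds were tested in 10-point dose curves from 10 uM top final concentration. The reaction was stopped with 2 nM Tb-anti-p4E-BP1 (T37/T46) antibody plus 10 mM EDTA for 30 minutes, and phospho-4E-BP1 was detected by TR-FRET. Ki apparent was fitted with the Morrison ATP-competitive tight-binding equation.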

Assay [2] relates to PC3 cells. The assay can be described thus: In vitro cell proliferation assay. Type of assay: cell-based, human. As to conditions: values tied to compounds by order of Table 1. The procedure: c. In Vitro Cell Proliferation Assay Efficacy of Formula I compounds were measured by a cell proliferation assay employing the following protocol: 1. An aliquot of 20 μl of cell culture containing about 10^3 cells (PC3 or MDAMB361.1) in medium was deposited in each well of a 384-well, opaque-walled plate. 2. Control wells were prepared containing medium and without cells; Cells were allowed to settle overnight. 3. The compound was added to the experimental wells and incubated for 3 days. 4. The plates were equilibrated to room temperature for approximately 30 minutes. 5. A volume of CellTiter-Glo Reagent equal to the volume of cell culture medium present in each well was added. […] The contents were mixed for 2 minutes on an orbital shaker to induce cell lysis. 7. The plate was incubated at room temperature for 20 minutes to stabilize the luminescence signal. 8. Luminescence was recorded and reported in graphs as RLU=relative luminescence units. Alternatively, cells were seeded at optimal density in a 96 well plate and incubated for 4 days in the presence of test compound. Alamar BlueTM was subsequently added to the assay medium, and cells were incubated for 6 h before reading at 544 nm excitation, 590 nm emission. EC50 values were calculated using a sigmoidal dose response curve fit.

Where [3] appears, read: Homo sapiens, PC-3, with PC3 cells.

By pKi is commonly meant −log10 of the Ki, conventionally taken in molar units. As a reminder, the pEC50 is the negative decadic logarithm of the EC50, by convention in mol/L.

pEC50, pKi: −log10 of the molar value.

mTOR enzyme (mTOR(1360-2549)+GBL), sequence (P42345 1360-2549, species assumed): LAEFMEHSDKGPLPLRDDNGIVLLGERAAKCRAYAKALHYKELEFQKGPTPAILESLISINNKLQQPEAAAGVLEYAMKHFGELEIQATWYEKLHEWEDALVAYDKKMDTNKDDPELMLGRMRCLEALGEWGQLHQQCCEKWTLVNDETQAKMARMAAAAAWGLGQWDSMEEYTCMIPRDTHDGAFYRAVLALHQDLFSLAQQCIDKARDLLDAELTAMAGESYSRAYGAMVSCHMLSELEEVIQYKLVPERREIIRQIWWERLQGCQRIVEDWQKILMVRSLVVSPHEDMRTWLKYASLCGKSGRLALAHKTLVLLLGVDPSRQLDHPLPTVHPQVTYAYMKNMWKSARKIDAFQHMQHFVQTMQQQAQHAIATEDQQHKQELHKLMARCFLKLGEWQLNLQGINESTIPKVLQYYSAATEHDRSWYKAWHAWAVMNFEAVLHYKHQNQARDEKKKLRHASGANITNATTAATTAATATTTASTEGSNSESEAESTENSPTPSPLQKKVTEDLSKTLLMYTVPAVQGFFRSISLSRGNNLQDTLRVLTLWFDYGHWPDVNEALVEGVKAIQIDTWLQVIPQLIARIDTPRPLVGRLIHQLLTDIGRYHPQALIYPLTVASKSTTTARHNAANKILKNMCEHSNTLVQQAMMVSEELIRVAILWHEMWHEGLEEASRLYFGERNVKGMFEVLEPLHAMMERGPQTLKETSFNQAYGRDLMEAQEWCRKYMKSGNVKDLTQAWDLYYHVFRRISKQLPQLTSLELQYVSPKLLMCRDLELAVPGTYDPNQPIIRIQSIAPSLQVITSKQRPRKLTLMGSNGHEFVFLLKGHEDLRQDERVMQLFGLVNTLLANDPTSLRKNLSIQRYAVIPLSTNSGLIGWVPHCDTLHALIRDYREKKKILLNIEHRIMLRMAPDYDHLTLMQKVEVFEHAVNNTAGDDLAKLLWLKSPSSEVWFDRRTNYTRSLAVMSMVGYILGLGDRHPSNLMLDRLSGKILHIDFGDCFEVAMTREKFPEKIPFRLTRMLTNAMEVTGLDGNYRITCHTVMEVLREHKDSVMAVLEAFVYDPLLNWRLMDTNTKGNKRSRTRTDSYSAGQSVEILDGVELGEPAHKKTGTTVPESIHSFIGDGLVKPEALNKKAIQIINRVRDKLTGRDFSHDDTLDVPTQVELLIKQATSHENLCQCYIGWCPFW
mTOR enzyme (mTOR(1360-2549)+GBL), sequence (Q9BVC4 whole entry partner, species assumed): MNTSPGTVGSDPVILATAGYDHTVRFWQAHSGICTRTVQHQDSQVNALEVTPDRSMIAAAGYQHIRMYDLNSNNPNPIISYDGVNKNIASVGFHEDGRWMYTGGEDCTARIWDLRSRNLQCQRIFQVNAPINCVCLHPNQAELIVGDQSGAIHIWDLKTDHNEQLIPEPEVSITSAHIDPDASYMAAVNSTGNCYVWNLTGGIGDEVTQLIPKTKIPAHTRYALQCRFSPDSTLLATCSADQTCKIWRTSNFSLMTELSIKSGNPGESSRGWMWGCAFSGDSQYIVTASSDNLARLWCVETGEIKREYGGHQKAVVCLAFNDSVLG

Consider `C[C@H]1COCCN1c1nc(-c2ccc(NC(=O)NC3COC3)cc2)nc2c1CCC1(CC1)O2` [Example 51, (S)-1-(4-(4′-(3-methylmorpholino)-5′,6′-dihydrospiro[cyclopropane-1,7′-pyrano[2,3-d]pyrimidine]-2′-yl)phenyl)-3-(oxetan-3-yl)urea], for which, in assay [1], the pKi is 9.00. The same compound showed a negative-log EC50 (pEC50) in assay [2] (setting [3]) of 7.11.
The matching figures for `C[C@H]1COCCN1c1nc(-c2ccc(NC(=O)Nc3ccn(C)n3)cc2)nc2c1CCC1(CC1)O2` [Example 52, (S)-1-(1-methyl-1H-pyrazol-3-yl)-3-(4-(4′-(3-methylmorpholino)-5′,6′-dihydrospiro[cyclopropane-1,7′-pyrano[2,3-d]pyrimidine]-2′-yl)phenyl)urea]: 9.00 and 6.76.
Consider `Cc1coc(NC(=O)Nc2ccc(-c3nc4c(c(N5CCOC[C@@H]5C)n3)CCC3(CC3)O4)cc2)n1` [Example 53, (S)-1-(4-(4′-(3-methylmorpholino)-5′,6′-dihydrospiro[cyclopropane-1,7′-pyrano[2,3-d]pyrimidine]-2′-yl)phenyl)-3-(4-methyloxazol-2-yl)urea], for which the negative-log Ki (pKi) in assay [1] was 9.00. The compound further had a pEC50 in assay [2] (setting [3]) of 6.63.
For `C[C@H]1COCCN1c1nc(-c2ccc(Nc3cccc(=O)[nH]3)cc2)nc2c1CCC1(CC1)O2` [Example 54, (S)-6-(4-(4′-(3-methylmorpholino)-5′,6′-dihydrospiro[cyclopropane-1,7′-pyrano[2,3-d]pyrimidine]-2′-yl)phenylamino)pyridin-2(1H)-one], in assay [1], the pKi is 9.00. Further, the pEC50 in assay [2] (setting [3]) is 7.40.
The matching figures for `C[C@H]1COCCN1c1nc(-c2ccc(Nc3nccc(=O)[nH]3)cc2)nc2c1CCC1(CC1)O2` [Example 55, (S)-2-(4-(4′-(3-methylmorpholino)-5′,6′-dihydrospiro[cyclopropane-1,7′-pyrano[2,3-d]pyrimidine]-2′-yl)phenylamino)pyrimidin-4(3H)-one]: 9.70 and 7.82.
Turning to `CNC(=O)Nc1ccc(-c2nc3c(c(N4CCOC[C@@H]4C)n2)CCC2(CC2)O3)cc1` [Example 56, (S)-1-methyl-3-(4-(4′-(3-methylmorpholino)-5′,6′-dihydrospiro[cyclopropane-1,7′-pyrano[2,3-d]pyrimidine]-2′-yl)phenyl)urea], the pKi in assay [1] is 9.00. The compound also gave a pEC50 in assay [2] (setting [3]) of 7.43.
In the case of `C[C@H]1COCCN1c1nc(-c2ccc(NC(=O)NCCS(C)(=O)=O)cc2)nc2c1CCC1(CC1)O2` [Example 57, (S)-1-(4-(4′-(3-methylmorpholino)-5′,6′-dihydrospiro[cyclopropane-1,7′-pyrano[2,3-d]pyrimidine]-2′-yl)phenyl)-3-(2-(methylsulfonyl)ethyl)urea], the negative logarithm of the Ki (pKi) in assay [1] is 8.30. In assay [2] (setting [3]), this compound gave a pEC50 of 6.23.
For the compound `CNC(=O)Nc1ccc(-c2nc3c(c(N4CCOC[C@@H]4C)n2)COCC3)cc1` [Example 58, (S)-1-methyl-3-(4-(4-(3-methylmorpholino)-7,8-dihydro-5H-pyrano[4,3-d]pyrimidin-2-yl)phenyl)urea], the negative logarithm of the Ki (pKi) in assay [1] was 8.15. The pEC50 in assay [2] (setting [3]) was 6.76.
Regarding `C[C@H]1COCCN1c1nc(-c2ccc(NC(=O)NCCS(C)(=O)=O)cc2)nc2c1COCC2` [Example 59, (S)-1-(4-(4-(3-methylmorpholino)-7,8-dihydro-5H-pyrano[4,3-d]pyrimidin-2-yl)phenyl)-3-(2-(methylsulfonyl)ethyl)urea], the negative-log Ki (pKi) in assay [1] was 7.34. In assay [2] (setting [3]), this compound showed a pEC50 of 5.40.
On the same counts, the results for `C[C@H]1COCCN1c1nc(-c2ccc(NC(=O)NCCO)cc2)nc2c1CCC1(CC1)O2` [Example 65, (S)-1-(2-hydroxyethyl)-3-(4-(4′-(3-methylmorpholino)-5′,6′-dihydrospiro[cyclopropane-1,7′-pyrano[2,3-d]pyrimidine]-2′-yl)phenyl)urea] are 9.40 and 7.72.
Turning to `C[C@H]1COCCN1c1nc(-c2ccc(NC(=O)NCCC#N)cc2)nc2c1CCC1(CC1)O2` [Example 66, (S)-1-(2-cyanoethyl)-3-(4-(4′-(3-methylmorpholino)-5′,6′-dihydrospiro[cyclopropane-1,7′-pyrano[2,3-d]pyrimidine]-2′-yl)phenyl)urea], in assay [1], the negative-log Ki (pKi) is 8.70. For the same compound, the negative-log EC50 (pEC50) in assay [2] (setting [3]) is 7.00.
On to `CONC(=O)Nc1ccc(-c2nc3c(c(N4CCOC[C@@H]4C)n2)CCC2(CC2)O3)cc1` [Example 67, (S)-1-methoxy-3-(4-(4′-(3-methylmorpholino)-5′,6′-dihydrospiro[cyclopropane-1,7′-pyrano[2,3-d]pyrimidine]-2′-yl)phenyl)urea], for which the pKi in assay [1] is 8.00. In assay [2] (setting [3]), this compound gave a pEC50 of 6.07.
The matching figures for `C[C@H]1COCCN1c1nc(-c2ccc(NC(=O)NC[C@H](O)CO)cc2)nc2c1CCC1(CC1)O2` [Example 68, 1-((S)-2,3-dihydroxypropyl)-3-(4-(4′-((S)-3-methylmorpholino)-5′,6′-dihydrospiro[cyclopropane-1,7′-pyrano[2,3-d]pyrimidine]-2′-yl)phenyl)urea]: 8.52 and 6.09.
On the same counts, the results for `C[C@H]1COCCN1c1nc(-c2ccc(NC(=O)NC[C@@H](O)CO)cc2)nc2c1CCC1(CC1)O2` [Example 69, 1-((R)-2,3-dihydroxypropyl)-3-(4-(4′-((S)-3-methylmorpholino)-5′,6′-dihydrospiro[cyclopropane-1,7′-pyrano[2,3-d]pyrimidine]-2′-yl)phenyl)urea] are 8.70 and 5.92.
On the same counts, the results for `C[C@H]1COCCN1c1nc(-c2ccc(NC(=O)NC3(CO)CC3)cc2)nc2c1CCC1(CC1)O2` [Example 70, (S)-1-(1-(hydroxymethyl)cyclopropyl)-3-(4-(4′-(3-methylmorpholino)-5′,6′-dihydrospiro[cyclopropane-1,7′-pyrano[2,3-d]pyrimidine]-2′-yl)phenyl)urea] are 7.70 and 5.80.
Regarding `O=C(Nc1ccc(-c2nc3c(c(N4[C@@H]5CC[C@H]4COC5)n2)CCC2(CC2)O3)cc1)NC1COC1` [Example 71, 1-(4-(4′-((1R,5S)-3-oxa-8-azabicyclo[3.2.1]octan-8-yl)-5′,6′-dihydrospiro[cyclopropane-1,7′-pyrano[2,3-d]pyrimidine]-2′-yl)phenyl)-3-(oxetan-3-yl)urea], the pKi in assay [1] was 8.70. In assay [2] (setting [3]), this compound showed a pEC50 of 6.32.
On the same counts, the results for `O=C(NCCO)Nc1ccc(-c2nc3c(c(N4[C@@H]5CC[C@H]4COC5)n2)CCC2(CC2)O3)cc1` [Example 72, 1-(4-(4′-((1R,5S)-3-oxa-8-azabicyclo[3.2.1]octan-8-yl)-5′,6′-dihydrospiro[cyclopropane-1,7′-pyrano[2,3-d]pyrimidine]-2′-yl)phenyl)-3-(2-hydroxyethyl)urea] are 9.00 and 6.76.
The matching figures for `C=CC[C@]1(C)OCc2c(N3CCOCC3)nc(-c3ccc(NC(=O)NCC)cc3)nc21` [Example 73 eb (S), (S)-1-(4-(7-allyl-7-methyl-4-morpholino-5,7-dihydrofuro[3,4-d]pyrimidin-2-yl)phenyl)-3-ethylurea]: 8.70 and 7.42.
As for `CCC[C@@]1(C)OCc2c(N3CCOCC3)nc(-c3ccc(NC(=O)NCC)cc3)nc21` [Example 73 ef (R), (R)-1-ethyl-3-(4-(7-methyl-4-morpholino-7-propyl-5,7-dihydrofuro[3,4-d]pyrimidin-2-yl)phenyl)urea], the negative logarithm of the Ki (pKi) in assay [1] is 8.40. The negative-log EC50 (pEC50) in assay [2] (setting [3]) is 7.04.
For the compound `CCC[C@]1(C)OCc2c(N3CCOCC3)nc(-c3ccc(NC(=O)NCC)cc3)nc21` [Example 73 ef (S), (S)-1-ethyl-3-(4-(7-methyl-4-morpholino-7-propyl-5,7-dihydrofuro[3,4-d]pyrimidin-2-yl)phenyl)urea], the pKi in assay [1] is 8.70. For the same compound, in assay [2] (setting [3]), the pEC50 was 7.46.
Turning to `CCNC(=O)Nc1ccc(-c2nc(N3CCOC[C@@H]3C)c3c(n2)[C@](C)(CCN2CCOCC2)OC3)cc1` [Example 76 eo (S), 1-ethyl-3-(4-((S)-7-methyl-4-((S)-3-methylmorpholino)-7-(2-morpholinoethyl)-5,7-dihydrofuro[3,4-d]pyrimidin-2-yl)phenyl)urea], the pKi in assay [1] was 6.53. Further, the negative logarithm of the EC50 (pEC50) in assay [2] (setting [3]) is 7.35.
As for `CCNC(=O)Nc1ccc(-c2nc(N3CCOC[C@@H]3C)c3c(n2)[C@@](C)(CCN(C)CC)OC3)cc1` [Example 78 eq (R), 1-ethyl-3-(4-((R)-7-(2-(ethyl(methyl)amino)ethyl)-7-methyl-4-((S)-3-methylmorpholino)-5,7-dihydrofuro[3,4-d]pyrimidin-2-yl)phenyl)urea], the negative logarithm of the Ki (pKi) in assay [1] was 7.33. The pEC50 in assay [2] (with PC3 cells) is 6.79.
For the compound `CCNC(=O)Nc1ccc(-c2nc(N3CCOC[C@@H]3C)c3c(n2)[C@](C)(CCN(C)CC)OC3)cc1` [Example 78 eq (S), 1-ethyl-3-(4-((S)-7-(2-(ethyl(methyl)amino)ethyl)-7-methyl-4-((S)-3-methylmorpholino)-5,7-dihydrofuro[3,4-d]pyrimidin-2-yl)phenyl)urea], the pKi in assay [1] was 7.68. Moreover, in assay [2] (with PC3 cells), the pEC50 is 5.89.
